What all share (type): in vitro ADME, human
The nature of data set [1]: Soluble peptide degradation, Cells condition (LC-MS). The settings on record: human, 24 h, LC-MS, ratio to βFβA6; for remaining at 24 h: hMSCs in culture with fresh media (Cells condition), Figure 3B heatmap, split-and-pool libraries KLVADX1X2ASAE (19 or 38 peptides per library) in media on hMSCs, N = 2, read-out: Fraction of peptide remaining after 24 hours: hMSC Cells. A digest of the protocol:
(§1)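 Pooled synthetic TAILS-derived peptides added to hUVEC or hMSC cultures (Cells) or cell-free conditioned media (Media); MMP-14 inhibitor NSC 405 020 at 10 µM final. Samples taken at 0 and 24 h, acidified, analysed by LC-MS; peak areas normalised to 50 µM βFβA6 internal standard, 24 h/0 h gives fraction remaining.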

The test system of the next data set is hUVECs. The data set is described as above. The settings on record: Figure 3B heatmap; split-and-pool libraries KLVADX1X2ASAE in media on hUVECs; 24 h; LC-MS, ratio to βFβA6; N = 2. A digest of the protocol:
as §1

Data set [2] is described as follows: Soluble peptide degradation, Media condition (cell-conditioned media, LC-MS). The settings on record: 24 h, LC-MS, ratio to βFβA6; for remaining at 24 h: human, hMSC-conditioned media without cells (Media condition), Figure 3B heatmap, split-and-pool libraries KLVADX1X2ASAE in hMSC-conditioned media without cells, N = 2, read-out: Fraction of peptide remaining after 24 hours: hMSC Media. A digest of the protocol: (§2)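 Pooled peptide library added to medium conditioned by hUVECs or hMSCs with cells removed. Fraction remaining after 24 h measured by LC-MS (positive-ion ESI). Value is peptide peak area relative to 50 µM non-degradable βFβA6 internal standard.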

Assay in data set [3]: as above
Conditions: 24 h, LC-MS, ratio to βFβA6. A digest of the protocol:
as §2

In a further data set the test system is MMP-14. The data set can be described thus: Soluble peptide degradation, Cells condition (LC-MS). The settings on record: human, with NSC 405 020 (MMP-14 inhibitor), Figure 3C, 50 µM peptide, 24 h, LC-MS, N = 6. The essentials: as §1
The test system of a further data set is hMSCs. The data set is described as above. Conditions: Figure 3C; individually synthesized soluble peptide, 50 µM, media on hMSCs; 24 h; LC-MS, ratio to βFβA6; N = 6. The essentials:
as §1

One may read the amount remaining as what is left of the initial amount, in per cent.

Like-named read-outs stand apart in the source and are kept apart here. Where a SMILES comes first, the peptide text is derived from it. [ ]: non-standard residue; d: D form. βAla = NCCC(=O)O

For `CC(=O)NCCC(=O)N[C@@H](CCCCN)C(=O)N[C@@H](CC(C)C)C(=O)N[C@H](C(=O)N[C@@H](C)C(=O)N[C@@H](CC(=O)O)C(=O)N[C@@H](CCC(=O)O)C(=O)N1CCC[C@H]1C(=O)N[C@@H](C)C(=O)N[C@@H](CO)C(=O)N[C@@H](C)C(=O)N[C@@H](CCC(=O)O)C(=O)NCCC(N)=O)C(C)C` [Glu-Pro] (Ac-[βAla]KLVADEPASAE[βAla]-NH2), the fraction remaining at 24 h worked out at 49% in data set [1]; 79% in data set [2]; 96% in data set [3] (human, hUVEC-conditioned media without cells (Media condition), Figure 3B heatmap, split-and-pool libraries KLVADX1X2ASAE in hUVEC-conditioned media without cells, N = 2, read-out: Fraction of peptide remaining after 24 hours: hUVEC Media). For the same compound, in the data set on hUVECs, the “Fraction of peptide remaining after 24 hours: hUVEC Cells” value was found to be 0.89.
With `CC(=O)NCCC(=O)N[C@@H](CCCCN)C(=O)N[C@@H](CC(C)C)C(=O)N[C@H](C(=O)N[C@@H](C)C(=O)N[C@@H](CC(=O)O)C(=O)N[C@@H](Cc1ccc(O)cc1)C(=O)N[C@@H](Cc1c[nH]c2ccccc12)C(=O)N[C@@H](C)C(=O)N[C@@H](CO)C(=O)N[C@@H](C)C(=O)N[C@@H](CCC(=O)O)C(=O)NCCC(N)=O)C(C)C` [KLVAD-YW] (Ac-[βAla]KLVADYWASAE[βAla]-NH2), the results for the share remaining at 24 h in data set [1] and in data set [2] were 53% and 78%, respectively. Further, the amount remaining at 24 h, 50 µM in data set [1] (hUVECs in culture with fresh media (Cells condition), Figure 3C, individually synthesized soluble peptide, 50 µM, media on hUVECs, N = 6, read-out: Fraction of peptide remaining after 24 hours: hUVEC Cells) came out at 72%; in the data set on MMP-14 (media on hMSCs with MMP-14 inhibitor NSC 405 020 10 µM, read-out: Fraction of peptide remaining after 24 hours: hMSC +Inhibitor) it was 76%; in the data set on MMP-14 (media on hUVECs with MMP-14 inhibitor NSC 405 020 10 µM, read-out: Fraction of peptide remaining after 24 hours: hUVEC +Inhibitor), 98%. Also, in the data set with hMSCs, the “Fraction of peptide remaining after 24 hours: hMSC Cells” value is listed as 0.4. Besides, in the data set with hUVECs, the “Fraction of peptide remaining after 24 hours: hUVEC Cells” value is 0.86. Also, in data set [2] (Figure 3C, individually synthesized soluble peptide, 50 µM, hMSC-conditioned media without cells, N = 6), the “Fraction of peptide remaining after 24 hours: hMSC Media” value came out at 0.91. Moreover, the “Fraction of peptide remaining after 24 hours: hUVEC Media” value in data set [3] (Figure 3B heatmap, split-and-pool libraries KLVADX1X2ASAE in hUVEC-conditioned media without cells, N = 2) is given as 0.96; in data set [3] (Figure 3C, individually synthesized soluble peptide, 50 µM, hUVEC-conditioned media without cells, N = 6), 0.92.

The values above are taken from PMC12683216, “Using High‐Throughput Screening to Identify Crosslinking Peptides That Control Cell‐Mediated Matrix Degradation” (Advanced Healthcare Materials, 2025).
